In patent publication US20250319024A1, “TARGETED NANOPARTICLES AND THEIR USES RELATED TO INFECTIOUS DISEASE” (priority 2021, published 2025):

Columns and labels:
T. gondii = settings: 200 mg/kg per day for 10 days, previous studies; cited from earlier work
M. tuberculosis = settings: literature; cited from earlier work
[1] = system: C. albicans, A. fumigatus, C. neoformans; assay: Liposome binding, summary statements over all three fungal species

## CC[C@H]1OC(=O)[C@H](C)[C@@H](O[C@H]2C[C@@](C)(OC)[C@@H](O)[C@H](C)O2)[C@H](C)[C@@H](O[C@@H]2O[C@H](C)C[C@H](N(C)C)[C@H]2O)[C@](C)(O)C[C@@H](C)CN(C)[C@H](C)[C@@H](O)[C@]1(C)O [Free AZI, Azithromycin]
T. gondii
  mouse survival: 100%

## CO[C@H]1/C=C/O[C@@]2(C)Oc3c(C)c(O)c4c(O)c(c(/C=N/N5CCN(C)CC5)c(O)c4c3C2=O)NC(=O)/C(C)=C\C=C\[C@H](C)[C@H](O)[C@@H](C)[C@@H](O)[C@@H](C)[C@H](OC(C)=O)[C@@H]1C [free RIF, rifampin]
M. tuberculosis
  doses reported to control murine infections: ~10 mg/kg/day

B1: DCS12: recombinant human DC-SIGN isoform, CRD fused to neck repeats 1 and 2, SEQ ID NO: 12 (protein)
chain: MAHHHHHHYGTGSGKGKGSGSGQSRQDAIYQNLTQLKAAVGELSEKSKLQEIYQELTQLKAAVERLCHPCPWEWTFFQGNCYFMSNSQRNWHDSITACKEVGAQLVVIKSAEEQNFLQLQSSRSNRFTWMGLSDLNQEGTWQWVDGSPLLPSFKQYWNRGEPNNVGEEDCAEFSGNGWNDDKCNLAKFWICKKSAASCSRDEEQFLSPAPATPNPPPA
[1]
  bound more efficiently than untargeted AmB-LLs or BSA-AmB-LLs: more than an order of magnitude
